{"source": "patent US7598403B2", "about": "“Synthesis of chromanones” (priority 2003, dated 2009)", "origin": "cited, not measured here", "system": "day-old broiler chicks", "details": "administered to day-old broiler chicks (Lee et al., 1985)", "data": [{"molecule": "CC1(C)CC(=O)c2c(ccc(C(=O)CC(N)CO)c2N)O1", "note": "(racemic) [FC101, 5-amino-2,2-dimethyl-6-[3′-(R,S)amino-4′-hydroxy-butan-1-one]-2,3-dihydro-4H-1-benzopyran-4-one]", "values": [{"measurement": "induction of Avian Tibial Dyschondroplasia (ATD)", "value": "cause ATD"}]}]}
